Results: patent US20110105623A1 (Biogenic Innovations, LLC, priority 2009, published 2011)

What was measured:
Chlorella sorokiniana = experiment: Algal growth by percent transmittance at 750 nm; format: cell-based
Protocol: Two species of Chlorella were examined for growth—Chlorella sorokiniana a freshwater species and Chlorella minutissima a marine species. […] Growth was measured on day 0, 1, 2, 3, 4, 5, 6, 7, 8, 9 and 10. […] The following media were purchased from UTEX Culture Collection of Algae: Enriched Salt Water Medium and Volvox Dextrose Medium.
The algae were grown for 48 hours in the appropriate medium. The initial suspension was enumerated for each alga and is referred to as the starting inoculums. Chlorella sorokiniana was at 381 million cells per milliliter and Chlorella minutissima was at 19 million cells per milliliter. One milliliter of the algal solution was placed into 9 mLs of medium and mixed by vortexing. […] The tube of algae and MSM were incubated at room temperature with exposure to sunlight. […] Each dilution of MSM for each organism was set up in and analyzed in triplicate for each time interval measured. The samples were measured by percent transmittance on a UV/VIS spectrophotometer at wavelength 750 nm. The medium stock was tested for percent transmittance background levels at every time interval were measured. The lower percent transmittance indicated a higher growth factor.

[1] = system: Streptococcus Pyogenes (Lancefield group A, #10096); experiment: Bacterial viability by bioluminescent ATP assay

Substance: Methylsulfonylmethane [MSM]
- Growth, percent transmittance at 750 nm (Chlorella sorokiniana; MSM 0.5%, Sample Day 0): 47.3%
- Growth, percent transmittance at 750 nm (Chlorella sorokiniana; MSM 0.5%, Sample Day 1): 41.8%
- Growth, percent transmittance at 750 nm (Chlorella sorokiniana; MSM 0.5%, Sample Day 2): 29.3%
- Growth, percent transmittance at 750 nm (Chlorella sorokiniana; MSM 0.5%, Sample Day 3): 29.6%
- Growth, percent transmittance at 750 nm (Chlorella sorokiniana; MSM 0.5%, Sample Day 4): 19.0%
- Growth, percent transmittance at 750 nm (Chlorella sorokiniana; MSM 0.5%, Sample Day 5): 12.4%
- Growth, percent transmittance at 750 nm (Chlorella sorokiniana; MSM 0.5%, Sample Day 6): 12.5%
- Growth, percent transmittance at 750 nm (Chlorella sorokiniana; MSM 0.5%, Sample Day 7): 11.9%
- Growth, percent transmittance at 750 nm (Chlorella sorokiniana; MSM 0.5%, Sample Day 8): 12.2%
- Growth, percent transmittance at 750 nm (Chlorella sorokiniana; MSM 0.5%, Sample Day 9): 7.5%
- Growth, percent transmittance at 750 nm (Chlorella sorokiniana; MSM 0.5%, Sample Day 10): 6.4%
- Growth, percent transmittance at 750 nm (Chlorella sorokiniana; MSM 1%, Sample Day 0): 48.7%
- Growth, percent transmittance at 750 nm (Chlorella sorokiniana; MSM 1%, Sample Day 1): 42.5%
- Growth, percent transmittance at 750 nm (Chlorella sorokiniana; MSM 1%, Sample Day 2): 37.5%
- Growth, percent transmittance at 750 nm (Chlorella sorokiniana; MSM 1%, Sample Day 3): 37.5%
- Growth, percent transmittance at 750 nm (Chlorella sorokiniana; MSM 1%, Sample Day 4): 17.3%
- Growth, percent transmittance at 750 nm (Chlorella sorokiniana; MSM 1%, Sample Day 5): 13.5%
- Growth, percent transmittance at 750 nm (Chlorella sorokiniana; MSM 1%, Sample Day 6): 13.0%
- Growth, percent transmittance at 750 nm (Chlorella sorokiniana; MSM 1%, Sample Day 7): 12.5%
- Growth, percent transmittance at 750 nm (Chlorella sorokiniana; MSM 1%, Sample Day 8): 12.4%
- Growth, percent transmittance at 750 nm (Chlorella sorokiniana; MSM 1%, Sample Day 9): 7.8%
- Growth, percent transmittance at 750 nm (Chlorella sorokiniana; MSM 1%, Sample Day 10): 6.6%
- Growth, percent transmittance at 750 nm (Chlorella sorokiniana; MSM 5%, Sample Day 0): 35.6%
- Growth, percent transmittance at 750 nm (Chlorella sorokiniana; MSM 5%, Sample Day 1): 31.2%
- Growth, percent transmittance at 750 nm (Chlorella sorokiniana; MSM 5%, Sample Day 2): 27.4%
- Growth, percent transmittance at 750 nm (Chlorella sorokiniana; MSM 5%, Sample Day 3): 21.4%
- Growth, percent transmittance at 750 nm (Chlorella sorokiniana; MSM 5%, Sample Day 4): 18.2%
- Growth, percent transmittance at 750 nm (Chlorella sorokiniana; MSM 5%, Sample Day 5): 15.7%
- Growth, percent transmittance at 750 nm (Chlorella sorokiniana; MSM 5%, Sample Day 6): 15.9%
- Growth, percent transmittance at 750 nm (Chlorella sorokiniana; MSM 5%, Sample Day 7): 16.3%
- Growth, percent transmittance at 750 nm (Chlorella sorokiniana; MSM 5%, Sample Day 8): 17.0%
- Growth, percent transmittance at 750 nm (Chlorella sorokiniana; MSM 5%, Sample Day 9): 13.7%
- Growth, percent transmittance at 750 nm (Chlorella sorokiniana; MSM 5%, Sample Day 10): 12.8%
- Growth, percent transmittance at 750 nm (Chlorella sorokiniana; MSM 10%, Sample Day 0): 31.2%
- Growth, percent transmittance at 750 nm (Chlorella sorokiniana; MSM 10%, Sample Day 1): 31.3%
- Growth, percent transmittance at 750 nm (Chlorella sorokiniana; MSM 10%, Sample Day 2): 29.7%
- Growth, percent transmittance at 750 nm (Chlorella sorokiniana; MSM 10%, Sample Day 3): 28.4%
- Growth, percent transmittance at 750 nm (Chlorella sorokiniana; MSM 10%, Sample Day 4): 29.0%
- Growth, percent transmittance at 750 nm (Chlorella sorokiniana; MSM 10%, Sample Day 5): 28.7%
- Growth, percent transmittance at 750 nm (Chlorella sorokiniana; MSM 10%, Sample Day 6): 27.1%
- Growth, percent transmittance at 750 nm (Chlorella sorokiniana; MSM 10%, Sample Day 7): 27.6%
- Growth, percent transmittance at 750 nm (Chlorella sorokiniana; MSM 10%, Sample Day 8): 27.1%
- Growth, percent transmittance at 750 nm (Chlorella sorokiniana; MSM 10%, Sample Day 9): 76.4%
- Growth, percent transmittance at 750 nm (Chlorella sorokiniana; MSM 10%, Sample Day 10): 93.8%
- Growth, percent transmittance at 750 nm (Chlorella sorokiniana; MSM 20%, Sample Day 0): 19.3%
- Growth, percent transmittance at 750 nm (Chlorella sorokiniana; MSM 20%, Sample Day 1): 21.9%
- Growth, percent transmittance at 750 nm (Chlorella sorokiniana; MSM 20%, Sample Day 2): 24.1%
- Growth, percent transmittance at 750 nm (Chlorella sorokiniana; MSM 20%, Sample Day 3): 28.1%
- Growth, percent transmittance at 750 nm (Chlorella sorokiniana; MSM 20%, Sample Day 4): 31.4%
- Growth, percent transmittance at 750 nm (Chlorella sorokiniana; MSM 20%, Sample Day 5): 33.6%
- Growth, percent transmittance at 750 nm (Chlorella sorokiniana; MSM 20%, Sample Day 6): 36.8%
- Growth, percent transmittance at 750 nm (Chlorella sorokiniana; MSM 20%, Sample Day 7): 40.6%
- Growth, percent transmittance at 750 nm (Chlorella sorokiniana; MSM 20%, Sample Day 8): 40.8%
- Growth, percent transmittance at 750 nm (Chlorella sorokiniana; MSM 20%, Sample Day 9): 84.8%
- Growth, percent transmittance at 750 nm (Chlorella sorokiniana; MSM 20%, Sample Day 10): 96.7%
- Growth, percent transmittance at 750 nm (Chlorella sorokiniana; MSM […], Sample Day 0): 40.6%
- Growth, percent transmittance at 750 nm (Chlorella sorokiniana; MSM […], Sample Day 1): 43.1%
- Growth, percent transmittance at 750 nm (Chlorella sorokiniana; MSM […], Sample Day 2): 44.9%
- Growth, percent transmittance at 750 nm (Chlorella sorokiniana; MSM […], Sample Day 3): 43.8%
- Growth, percent transmittance at 750 nm (Chlorella sorokiniana; MSM […], Sample Day 4): 26.1%
- Growth, percent transmittance at 750 nm (Chlorella sorokiniana; MSM […], Sample Day 5): 10.3%
- Growth, percent transmittance at 750 nm (Chlorella sorokiniana; MSM […], Sample Day 6): 10.9%
- Growth, percent transmittance at 750 nm (Chlorella sorokiniana; MSM […], Sample Day 7): 11.0%
- Growth, percent transmittance at 750 nm (Chlorella sorokiniana; MSM […], Sample Day 8): 11.2%
- Growth, percent transmittance at 750 nm (Chlorella sorokiniana; MSM […], Sample Day 9): 8.4%
- Growth, percent transmittance at 750 nm (Chlorella sorokiniana; MSM […], Sample Day 10): 6.0%
- IC50 [1]: 10.26%
